Reference: PubChem BioAssay (NCI)
Several values for one entry are separate records, joined by “and”; a condition that tells them apart may be missing. Identical values can stand only once.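 Method: 48-hour compound exposure of cells in 96-well plates, five concentrations, linear interpolation of endpoints. GI50 = concentration required for 50% inhibition of growth. At the TGI there is no net growth.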

What was measured:
Experiment in all cases: growth of human tumour cells (NCI), 48 h
[1] = test system: CCRF-CEM leukemia
[2] = test system: HCC-2998 colon
[3] = test system: HOP-62 NSCLC
[4] = test system: LOX IMVI melanoma
[5] = test system: MCF7 breast
[6] = test system: MDA-MB-231 breast
[7] = test system: OVCAR-4 ovarian
[8] = test system: SF-295 CNS
[9] = test system: T-47D breast
[10] = test system: U251 CNS
[11] = test system: UACC-257 melanoma

Structure (SMILES)	TGI [1] [µM]	TGI [2] [µM]	TGI [3] [µM]	TGI [4] [µM]	TGI [5] [µM]	TGI [6]	TGI [7]	TGI [8]	TGI [9] [µM]	TGI [10] [µM]	TGI [11] [µM]	GI50 [1]	GI50 [2] [µM]	GI50 [4] [µM]	GI50 [6]	GI50 [9] [µM]
Fc1ccc(N2C(=S)SC(=Nc3ccccc3)C2=Nc2ccccc2)cc1	> 46.4	> 100	> 100	> 100	> 100	> 100 µM	> 100 µM	> 100 µM	> 100	> 100	> 100	–	–	–	–	–
CC(C)=CCN1CC(C)C(=O)Nc2ccccc21 (stereo not given)	> 100	> 100	> 100	> 100	> 100	> 100 µM	> 100 µM	> 100 µM	> 100	> 100	> 100	–	–	–	–	–
CC(=O)NC1C(OCc2ccccc2)OC(CO)C(O)C1OC(C)C(=O)NC(C)C(=O)NC(CCC(=O)NCCCCNc1c2ccccc2nc2cccc([N+](=O)[O-])c12)C(N)=O (stereo not given)	0.578	0.0588	0.683	0.548	0.652	0.118 µM	0.645 µM	1.66 µM	0.961	0.303	0.509	–	–	–	–	–
CCC1OC2C(CC=C(C)C)=C3OC(C)(O)C(C)(CC)C(OC(C)=O)C3=C3OC(=O)C=C1C32 (stereo not given)	> 100	50.6	60.1	48.8	> 100	36.7 µM	70.5 µM	42.2 µM	> 100	> 100	53.7	–	–	–	–	–
COC(=O)c1ccc2c(c1)S/C(=C/c1ccc3ccc4cccc5ccc1c3c45)S2	> 100	> 100	> 100	> 100	> 100	> 100 µM	> 100 µM	> 100 µM	> 100	> 100	> 100	–	–	–	–	–
CC1(C)CC[C@]2(C)CC[C@]3(C)C(=CC[C@@H]4[C@@]5(C)CCC(=O)C(C)(C)[C@@H]5[C@H](O)C[C@]43C)[C@@H]2C1	> 100	28.9	31.5	32.8	35.1	23.7 µM	34.7 µM	32.3 µM	37.7	30.5	32.3	–	–	–	–	–
O=C(c1cccs1)N(C(=S)OCCOc1ccccc1)c1ccccc1	59.4	59.4	72.5	33.3	44.6	61.9 µM	86.7 µM	71 µM	> 100	48.8	69.9	–	–	–	–	–
CCOP1(=O)CC(C)=C(Cl)C(O)C1 (stereo not given)	> 100	> 100	> 100	> 100	> 100	> 100 µM	> 100 µM	> 100 µM	> 100	> 100	> 100	–	–	–	–	–
O=[N+]([O-])c1ccc(OC2CC3C4C=CC3C2C4)c([N+](=O)[O-])c1 (stereo not given)	> 100	> 100	> 100	> 100	> 100	74 µM and > 31.6 µM	76.3 µM and > 31.6 µM	49.9 µM and > 31.6 µM	> 100	> 100	> 100	> 100 µM and 24 µM	> 100	> 100	11.3 µM and > 31.6 µM	> 100
CCC(=O)C(CCN1CCC2(CCCc3ccccc32)CC1)(c1ccccc1)c1ccccc1	> 100	7.44	8.91	2.16	10.9	5.78 µM	18.7 µM	4.9 µM	10.2	14	5.51	–	–	–	–	–
CCOC(=O)C1(C(=O)OCC)[C@@H](c2ccccc2)C2=NO[C@@H]3CCC[C@H]1[C@H]23	78.7	50.2	> 100	> 100	> 100	> 100 µM	> 100 µM	> 100 µM	> 100	> 100	79.8	–	–	–	–	–
COC(=O)c1cc2c(c3c1CC(Cc1ccccc1)C3=O)CCC2 (stereo not given)	> 100	> 100	> 100	> 100	> 100	> 100 µM	> 100 µM	> 100 µM	> 100	> 100	> 100	–	–	–	–	–
COc1cc2c(c(O)c1OC)C(=O)[C@@H]1CCC(=O)N1C2	> 100	> 100	> 100	> 100	> 100	> 100 µM	> 100 µM	> 100 µM	> 100	> 100	> 100	–	–	–	–	–
O=[N+]([O-])/C(C(Cl)=C(Cl)Cl)=C(/Cl)SCc1ccccc1	0.448	43.5	30	23.4	16	4.32 µM	18.6 µM	69.1 µM	39.2	25.1	7.03	–	–	–	–	–
COc1ccc2c(c1)c1c(n2CCN(C)C)-c2ccccc2CC1	38.6	32.2	30.5	33.5	35.1	27.2 µM	31.4 µM	30.6 µM	31.5	27.2	30.3	–	–	–	–	–
